What was measured:
[1] = biological target: T1, OCT3 (Homo sapiens, UniProt O75751); settings: for OCT3; cited from earlier work
T1 sequence (O75751 1-556): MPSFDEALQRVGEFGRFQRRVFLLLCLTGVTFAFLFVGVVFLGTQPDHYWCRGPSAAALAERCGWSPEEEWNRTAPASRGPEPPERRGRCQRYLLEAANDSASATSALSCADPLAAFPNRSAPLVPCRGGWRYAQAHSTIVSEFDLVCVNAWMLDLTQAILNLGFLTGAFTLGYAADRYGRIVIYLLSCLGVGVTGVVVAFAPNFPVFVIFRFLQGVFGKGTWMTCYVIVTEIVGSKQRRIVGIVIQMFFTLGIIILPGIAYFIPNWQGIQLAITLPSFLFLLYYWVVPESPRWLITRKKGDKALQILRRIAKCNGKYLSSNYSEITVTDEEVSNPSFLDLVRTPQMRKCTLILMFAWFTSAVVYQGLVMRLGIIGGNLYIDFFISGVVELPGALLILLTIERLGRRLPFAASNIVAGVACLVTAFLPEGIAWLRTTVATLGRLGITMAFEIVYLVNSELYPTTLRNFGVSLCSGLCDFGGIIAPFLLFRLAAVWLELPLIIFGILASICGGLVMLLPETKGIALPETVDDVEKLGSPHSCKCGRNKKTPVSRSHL

[2] = tested on: α1-adrenoreceptors; settings: cited from earlier work
[3] = tested on: α2-adrenoreceptors; settings: cited from earlier work
[4] = after injection in rabbits; cited from earlier work
[5] = tested on: corticosterone-induced depression model; test: Coat state, corticosterone-induced depression; assay type: in vivo, mice; settings: both time points; i.p. daily: I-1 0.1 mg/kg/day, fluoxetine 15 mg/kg/day or both
Procedure: Corticosterone-induced depression. […] The experimental scheme is represented on FIG. 1A. Coat state. The coat state of each animal was assessed weekly as a measure of motivation toward self-care. It was evaluated as the sum of the score of different parts of the body, ranging between 0 for a well-groomed coat and 1 for an unkempt coat for head, neck, dorsal/ventral coat, tail and forepaws/hindpaws (FIG. 1B).

[6] = Effect on weight, corticosterone-induced depression; assay type: in vivo, mice; settings: weight measured daily; I-1 0.1 mg/kg/day, fluoxetine 15 mg/kg/day or both, i.p.
Procedure: Corticosterone-induced depression. […] The experimental scheme is represented on FIG. 1A. Effect on weight. The weight of tested mice was measured daily in the morning (FIG. 2D).

[7] = blood after 3 weeks of treatment, corticosterone model; means ± SEM (n = 6)
Procedure: (§1) Corticosterone-induced depression. To induce a chronic depression-like state, individually housed mice were administered corticosterone ([…]; Sigma-Aldrich) dissolved in 0.45% (wt/vol) hydroxypropyl-b-cyclodextrin (Sigma-Aldrich) as in (Bacq et al., Mol. Psychiatry, 2012, 17, 926-939). […] The mice were tested successively for coat sate, sucrose consumption, elevated O-maze, object location test and social interaction, before antidepressant treatment, and after 10 days and 3 weeks of treatment. The experimental scheme is represented on FIG. 1A.
Blood parameter evaluation. Blood was collected in lithium heparin after the 3 weeks of treatment. Hemograms were performed with a Siemens ADVIAZ 120 apparatus. For biochemistry, blood was centrifuged at 2000 g for 10 min at +4° C. and supernatant was analyzed with a COBAS 6000 (Roche) apparatus.

[8] = tested on: corticosterone-induced depression model; test: Elevated O-maze test, corticosterone-induced depression; assay type: in vivo, mice; settings: after 21 days; i.p. daily: I-1 0.1 mg/kg/day, fluoxetine 15 mg/kg/day or both
Procedure: Corticosterone-induced depression. […] The experimental scheme is represented on FIG. 1A. Elevated O-maze test. The elevated O-maze consisted of an annular runway positioned 40 cm above the floor and divided into two opposing 90° closed sectors and two 90° open sectors. The mice were individually placed in the closed sector and their behavior recorded over a 5-min period. The time spent in each sector and the number of sector entries (a sector entry was defined as all four of the paws being placed in a sector) were determined by video tracking (Viewpoint, Lyon, France) (FIGS. 1D and 1E).

[9] = tested on: corticosterone-induced depression model; test: Social interaction test, corticosterone-induced depression; assay type: in vivo, mice; settings: compared to corticosterone
Procedure: (§2) Corticosterone-induced depression. […] The experimental scheme is represented on FIG. 1A. Social interaction test. The social interaction test was performed in a white open-field (42×42 cm) containing an empty wire mesh cage (10×6.5 cm) located at an extremity of the field in a low luminosity environment (25 lux). Each test mouse was allowed to explore the openfield for two consecutive sessions of 2.5 min. During the second session, an unfamiliar mouse was introduced into the cage. Between the two sessions, the test mouse was placed back into its home cage for approximately one minute. The time spent by the test mouse in the interaction zone, defined as an 8-cm-wide region surrounding the mesh cage, was measured in both sessions by video tracking (Viewpoint, Lyon, France) (FIGS. 1G and 1I).

[10] = tested on: autophagy and proteasome pathways in the brain; test: Toxicity: cell death pathways in the brain, Western blots; settings: quantitative Western blot, prefrontal cortex and hippocampus, corticosterone model
Procedure: as §1
Cell death pathways in the brain—Western blots. […] Samples were homogenized by sonication in 2 vol of ice-cold phosphate-buffered saline containing 1% Triton X-100, protease inhibitors (Complete Protease Inhibitor Cocktail, Roche Diagnostics, Basel, Switzerland) and phosphatase inhibitors (Phosphatase Inhibitor Cocktail 3; Sigma-Aldrich). Protein concentrations were determined by Bradford's method. Proteins samples (15 μg) suspended in NuPage LDS sample buffer (Invitrogen, Carlsbad, Calif., USA) were separated by Bis-Tris sodium dodecyl sulfate polyacrylamide gel electrophoresis (10% gels) and transferred onto nitrocellulose membranes (Invitrogen). Transfer efficacy was controlled by Ponceau S staining. Unspecific binding sites were blocked in Tris-buffered saline containing 0.1% Tween-20 and 5% nonfat milk and membranes were immunoprobed with antibodies against β-actin ( 1/2500) and β-catenin ( 1/300) from Sigma-Aldrich or LC3B ( 1/5000) from Abcam. Membranes were incubated with infrared-labeled secondary antibodies (IRDye 700DX and IRDye 800CW; 1/5000; Rockland, Gilbertsvillle, Pa., USA). Immunoblotting was quantified with the Odyssey Infrared Imaging System and Application Software version 3.0 (LI-COR Biosciences, Lincoln, Nebr., USA).

[11] = tested on: social defeat model; test: Social defeat model, social interaction test; assay type: in vivo, mice; settings: after 3 weeks of treatment; fluoxetine 17 mg/kg, compound (I-1) 0.1 mg/kg as printed
Procedure: as §2, with “Social defeat model. For social defeat, 8-week-old C57Bl/6J mice were submitted to social defeat stress for 10 consecutive days as described (Berton et al., Science, 2006, 311(5762), 864-8).” for “Corticosterone-induced depression.”, “1H.” for “1A.”

[12] = tested on: corticosterone-induced depression model; test: Sucrose preference test, corticosterone-induced depression; assay type: in vivo, mice; settings: i.p. daily: I-1 0.1 mg/kg/day, fluoxetine 15 mg/kg/day or both
Procedure: Corticosterone-induced depression. […] The experimental scheme is represented on FIG. 1A. Sucrose preference test. Singled-house mice were first habituated for 48 h to drink water from two bottles.

[13] = tested on: corticosterone-induced depression model; test: Open-field test, corticosterone-induced depression; assay type: in vivo, mice; settings: compared to corticosterone; I-1 0.1 mg/kg/day, fluoxetine 15 mg/kg/day or both, i.p.
Procedure: as §1
Open-field test. The open field consisted of a white Plexiglas field (100×100×30 cm) with the center brightly illuminated (500 lux). General locomotor activity in the center and periphery of the open field were scored for 9 min. The time and number of entries in the center zone (60×60 cm) were evaluated as an index of anxiety-related response (FIG. 2B).

CC(C)N1/C(=C\c2cc[n+](C(C)C)c3ccccc23)C=Cc2ccccc21 [Compound D24, disprocynium 24]
Ki [1]: 14 nM
inhibition of α1-adrenoreceptors [2]: inhibits
inhibition of α2-adrenoreceptors [3]: inhibits
hypotensive effects (blood pressure) [4]: decreasing blood pressure markedly

CNCCC(Oc1ccc(C(F)(F)F)cc1)c1ccccc1 (stereo not shown) [fluoxetine, reference compound]
coat state [5]: improved coat state at both time points
effect on weight [6]: no significant effect
ALP [7]: 47.4 ± 6.2 U/L
ALT [7]: 75.1 ± 12.4 U/L
AST [7]: 584.2 ± 87.6 U/L
Creatinine [7]: 0.5 ± 0.04 mg/dL
Hematies [7]: 8.5 ± 0.3 T/L
Leucocytes [7]: 2.99 ± 0.08 g/L
Platelets [7]: 357 ± 57.2
Total bilirubin [7]: 0.12 ± 0.01 mg/dL
Urea [7]: 64.2 ± 4.1 mg/dL
latency to enter the open zone of the elevated O-maze [8]: decreased the latency to enter this zone
time in the open zone of the elevated O-maze [8]: increased the time in the open zone
interaction time in social interaction test ([9]; 11 days of treatment): significant effects on interaction time
interaction time in social interaction test ([9]; 21 days of treatment): significant effects on interaction time
LC3II/LC3I ratios [10]: comparable LC3II/LC3I ratios
β-catenin levels [10]: comparable
reversal of social aversion (time in interaction zone with target) [11]: reversed only by fluoxetine
sucrose preference ([12]; 11 days of treatment): but not fluoxetine alone, significantly increased sucrose preference at 11 days
sucrose preference ([12]; 21 days of treatment): significantly increased sucrose preference at 21 days
locomotor activity at the periphery of the open field [13]: significant effect

Source: patent US11414398B2, “Selective organic cation transporters inhibitors for the treatment of depressive disorders” (priority 2017, dated 2022)
